In ChEMBL document CHEMBL1142326, “2-Amino-N-pyrimidin-4-ylacetamides as A2A receptor antagonists: 1. Structure-activity relationships and optimization of heterocyclic substituents” (J Med Chem, 2008):

Tests used:
[1] = target: T1, Adenosine receptor A1 (Homo sapiens, UniProt P30542); assay: Displacement of [3H]DPCPX from human adenosine A1 receptor expressed in HEK293 cells; type: cell-based
T1 sequence (P30542 whole entry): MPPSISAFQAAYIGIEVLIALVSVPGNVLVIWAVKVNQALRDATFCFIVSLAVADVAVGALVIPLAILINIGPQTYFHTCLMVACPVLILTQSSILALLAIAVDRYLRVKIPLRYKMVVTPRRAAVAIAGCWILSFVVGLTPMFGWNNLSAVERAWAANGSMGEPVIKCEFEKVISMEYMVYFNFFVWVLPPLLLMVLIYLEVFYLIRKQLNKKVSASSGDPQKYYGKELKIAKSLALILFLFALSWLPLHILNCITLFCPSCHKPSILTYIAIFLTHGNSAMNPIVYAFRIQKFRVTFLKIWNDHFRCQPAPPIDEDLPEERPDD

[2] = target: T2, Adenosine receptor A2a (Homo sapiens, UniProt P29274); assay: Displacement of [3H]ZM241385 from human adenosine A2A receptor expressed in HEK293 cells; type: cell-based
[3] = target: Cytochrome P450 3A4 (Homo sapiens, UniProt P08684); assay: Inhibition of CYP3A4; type: ADME
[4] = target: T2, Adenosine receptor A2a; assay: Antagonist activity at human adenosine A2A receptor by cAMP assay; type: functional

T2 sequence (P29274 whole entry): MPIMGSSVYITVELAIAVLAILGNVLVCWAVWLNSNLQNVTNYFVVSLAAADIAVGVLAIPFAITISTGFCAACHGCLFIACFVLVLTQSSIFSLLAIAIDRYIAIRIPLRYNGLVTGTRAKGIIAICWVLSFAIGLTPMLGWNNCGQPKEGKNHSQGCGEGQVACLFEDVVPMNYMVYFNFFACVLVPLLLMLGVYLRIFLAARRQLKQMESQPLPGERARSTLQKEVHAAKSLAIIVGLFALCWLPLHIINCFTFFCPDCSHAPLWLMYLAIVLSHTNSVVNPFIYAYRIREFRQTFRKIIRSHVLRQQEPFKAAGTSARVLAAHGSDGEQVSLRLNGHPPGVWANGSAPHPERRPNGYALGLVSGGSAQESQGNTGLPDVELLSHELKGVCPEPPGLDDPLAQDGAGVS
Cytochrome P450 3A4, sequence (P08684 whole entry): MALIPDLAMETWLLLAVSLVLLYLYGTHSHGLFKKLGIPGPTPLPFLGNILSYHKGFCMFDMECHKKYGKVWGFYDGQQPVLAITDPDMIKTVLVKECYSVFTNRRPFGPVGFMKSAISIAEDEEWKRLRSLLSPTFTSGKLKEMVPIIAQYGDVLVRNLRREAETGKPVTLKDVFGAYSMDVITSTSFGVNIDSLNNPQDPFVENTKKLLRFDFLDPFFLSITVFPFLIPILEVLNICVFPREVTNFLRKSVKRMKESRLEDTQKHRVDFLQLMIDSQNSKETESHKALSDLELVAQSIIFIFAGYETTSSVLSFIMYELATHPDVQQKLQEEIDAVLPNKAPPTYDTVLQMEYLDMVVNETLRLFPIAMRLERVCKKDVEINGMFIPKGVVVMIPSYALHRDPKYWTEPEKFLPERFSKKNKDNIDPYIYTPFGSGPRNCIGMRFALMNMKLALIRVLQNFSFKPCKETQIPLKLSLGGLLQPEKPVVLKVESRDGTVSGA

Ki [1] | Ki [2] | IC50 [4] | Structure (SMILES) | IC50 [3]
850 nM | 12 nM | – | Cc1cc(C)n(-c2cc(NC(=O)CN3CCN(C)CC3)nc(-c3ccc(C)o3)n2)n1 | –
4200 nM | 131 nM | – | CN1CCN(CC(=O)Nc2cc(-n3cccn3)nc(-n3cccn3)n2)CC1 | –
850 nM | 17 nM | – | CN1CCN(CC(=O)Nc2cc(-n3cccn3)nc(-c3nccs3)n2)CC1 | –
> 10000 nM | 190 nM | – | Cc1cc(C)n(-c2nc(NC(=O)CN3CCN(C)CC3)cc(-c3ocnc3C)n2)n1 | –
– | – | 103 nM | CN1CCN(CC(=O)Nc2cc(-c3nccs3)nc(-c3ccco3)n2)CC1 | –
> 10000 nM | 1000 nM | – | Cc1cc(C)n(-c2nc(NC(=O)CN3CCN(C)CC3)cc(-c3cnco3)n2)n1 | –
850 nM | 135 nM | – | Cc1ccc(-c2nc(NC(=O)CN3CCN(C)CC3)cc(-n3cccn3)n2)o1 | –
930 nM | 53.4 nM | – | CN1CCN(CC(=O)Nc2cc(-n3cccn3)nc(-c3ccccn3)n2)CC1 | –

More lines, now with the values behind:

Structure (SMILES) | Ki [1] | Ki [2] | IC50 [4] | IC50 [3]
CN1CCN(CC(=O)Nc2cc(-c3ccccn3)nc(-c3cccs3)n2)CC1 | 389 nM | 24 nM | – | –
Cc1cc(C)n(-c2nc(NC(=O)CN3CCN(C)CC3)cc(-c3nccs3)n2)n1 | 1700 nM | 27 nM | – | –
Cc1cc(C)n(-c2cc(NC(=O)CN3CCN(C)CC3)nc(-c3nccs3)n2)n1 | 2000 nM | 9 nM | – | 13000 nM
Cc1ccc(-c2nc(NC(=O)CN3CCN(C)CC3)cc(-c3nccs3)n2)o1 | 720 nM | 51 nM | – | –
Cc1ccc(-c2nc(NC(=O)CN3CCN(C)CC3)cc(-n3nccc3C)n2)o1 | 390 nM | 14 nM | – | –
Cc1cc(C)n(-c2cc(NC(=O)CN3CCN(C)CC3)nc(-c3ccccn3)n2)n1 | 4400 nM | 25.5 nM | – | –
